Laboratory results reported in patent US6444646B1, “Use of angiotensin II type 2 receptor agonists in tissue repair” (University of Southern California, priority 1995, dated 2002).
Where two headings read alike, the source gives them in different places. Non-standard residues stand in square brackets, D forms with d. No end group written: not given here. Phe(4-NH2) = Nc1ccc(C[C@H](N)C(=O)O)cc1

Columns and labels:
[1] = tested on: intimal hyperplasia after balloon injury; conditions: cited from earlier work
[2] = tested on: wound tissue; conditions: applied to wound tissue; cited from earlier work
[3] = tested on: full thickness dermal wounds; test: rat model for dermal repair (full thickness dermal wounds); assay type: in vivo; conditions: 100 μg/d for 5 days
Protocol: Female Sprague Dawley rats, 175-200 g, were obtained from Simonsen Laboratories, Gilroy, Calif. On the day of surgery, the rats received intramuscular ketamine/rompum anesthesia prior to preparation for surgery. The rats were shaved and scrubbed with betadine. Two 1.5×1.5 cm full thickness dermal wounds were created on the dorsal surface of the rat. Following excision of the skin, the size of the wound was outlined on a glass slide and the medicament was administered in 100 μl 10% low viscosity carboxymethyl cellulose (Sigma). The test materials were administered in a randomized fashion; all materials were tested at 100 μg/wound. Controls were treated with vehicle only. After administration of the materials, the rats were bandaged and allowed to recover from anesthesia. On days 1-4 after surgery, the rats were treated with an additional 100 μg of peptide formulation. At days 2, 4 ,7 and 9, the area of the skin wounds were measured under methoxyflurane anesthesia (commercially available as Metofane from Pittman-Moore, Mundelein, Ill.). The area of the wound was determined by (1) tracing the wound shape onto graph paper (1×1 mm squares); (2) cutting out the shape; (3) weighing the paper and comparing the weight with a 1.5×1.5 cm paper cutout; and (4) counting the number of squares. In addition, on days 2, 4 and 7, the area of granulation tissue was similarly determined.
As illustrated in FIGS. 1-2, wound closure and the formation of granulation tissue was substantially accelerated relative to the control animals when the test animals were treated with an AT2 agonist. FIG. 1 illustrates the percent of control response in wound closure relative to a vehicle-treated control; FIG. 2 illustrates the percent increase in formation of granulation tissue relative to a vehicle control.

[4] = tested on: AT2 receptor; conditions: higher affinity for AT2 than AT1; cited from earlier work
[5] = tested on: AT2 receptor; conditions: experimental models tested (rabbit vas deferens; NG-108-15); cited from earlier work
[6] = rat dermal wounds, relative to vehicle-treated control

Molecule: Cc1cc(Cn2cnc3c2C[C@@H](C(=O)O)N(C(=O)C(c2ccccc2)c2ccccc2)C3)ccc1N(C)C [PD 123319]
- reduction of intimal hyperplasia ([1]; rats, after balloon injury): 73%

Molecule: CCCCc1nc(Cl)c(CO)n1Cc1ccc(-c2ccccc2-c2nn[nH]n2)cc1 [losartan]
- neointimal formation ([1]; other studies, higher doses): effective
- decrease of intimal area ([1]; rats, after balloon injury): 95%
- neointimal formation ([1]; similar model, low doses): ineffective

Molecule: Asp-Arg-Val-Tyr-Ile-His-Pro-Phe (DRVYIHPF) [angiotensin II, octapeptide present in humans and other species; known pressor agent]
- rate of wound healing [2]: significantly increases

Molecule: Asp-Arg-Val-Tyr-Ile-Xaa-Pro-Phe [SEQ ID NO:2] wherein Xaa is p-NH2-Phe (DRVYI[Phe(4-NH2)]PF) [p-aminophenylalanine6-AII]
- granulation tissue formation [3, 6]: accelerated
- wound closure [3, 6]: accelerated
- results in dermal repair compared with AII ([3]; rat): comparable to AII
- affinity for AT2 relative to AT1 [4]: 1000 ×
- binding characteristics [5]: comparable to the AT2 antagonists

Molecule: CGP 42112
- neointimal formation ([1]; similar model, infused perivascularly for 14 days): prevented neointimal formation
